Measured values taken from ChEMBL document CHEMBL1201862, “PubChem BioAssay data set” (2004).
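Briefly, cells in 96-well plates were exposed to five compound concentrations for 48 h, and endpoints were estimated by linear interpolation. Here, GI50 denotes the concentration required for 50% inhibition of growth.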 Activity calls are given as the source filed them. No stated cut-off is given here; in the data, active = GI50 up to about 1.1 µM and inactive = higher.

Legend:
Experiment in all cases: inhibition of tumour cell growth, NCI panel, 48 h
[1] = tested on: A498
[2] = tested on: ACHN
[3] = tested on: BT-549
[4] = tested on: CAKI-1
[5] = tested on: CCRF-CEM
[6] = tested on: DU-145
[7] = tested on: HCT-15
[8] = tested on: HT-29
[9] = tested on: Hs-578T
[10] = tested on: MDA-MB-435
[11] = tested on: Malme-3M
[12] = tested on: NCI-H460
[13] = tested on: OVCAR-5
[14] = tested on: PC-3
[15] = tested on: SW-620
[16] = tested on: T47D

SMILES	GI50 [1]	GI50 [2]	GI50 [3]	GI50 [4]	GI50 [5]	GI50 [6]	GI50 [7]	GI50 [8]	GI50 [9]	GI50 [10]	GI50 [11]	GI50 [12]	GI50 [13]	GI50 [14]	GI50 [15]	GI50 [16]
C=C1CC(Cn2cc(C)c(=O)[nH]c2=O)(c2ccc(-c3ccccc3)cc2)OC1=O (stereo not drawn)	3.34 µM (inactive)	3.07 µM (inactive)	1.46 µM (inactive)	1.55 µM (inactive)	0.379 µM (active)	2.35 µM (inactive)	1.69 µM	0.875 µM (active)	6.55 µM (inactive)	1.8 µM (inactive)	2.11 µM (inactive)	6.95 µM (inactive)	9.46 µM (inactive)	2.01 µM (inactive)	0.546 µM (active)	1.99 µM (inactive)
C[O+]=C1C=CC(=C2SC(c3ccccc3)(c3ccccc3)c3ccccc32)C=C1.[O-][Cl+3]([O-])([O-])[O-]	24 µM (inactive)	24.8 µM (inactive)	24.7 µM (inactive)	30.9 µM (inactive)	26.4 µM (inactive)	26.2 µM (inactive)	10.9 µM	15 µM (inactive)	18.6 µM (inactive)	18.6 µM (inactive)	18.8 µM (inactive)	14 µM (inactive)	19.5 µM (inactive)	20.9 µM (inactive)	31.6 µM (inactive)	20.8 µM (inactive)
c1csc(-c2ccsc2-c2ccsc2)c1	> 100 µM (inactive)	> 100 µM (inactive)	> 100 µM (inactive)	> 100 µM (inactive)	45.2 µM (inactive)	> 100 µM (inactive)	39.8 µM	> 100 µM (inactive)	90.2 µM (inactive)	39.3 µM (inactive)		97.9 µM (inactive)	> 100 µM (inactive)	41.3 µM (inactive)	> 100 µM (inactive)	> 100 µM (inactive)
CCOC(=O)O/C(=C\c1ccc(OC)cc1)c1c(OC(=O)OCC)n(C(=O)OCC)c2ccccc12	14.2 µM (inactive)	29.1 µM (inactive)	39.5 µM (inactive)	57.9 µM (inactive)	21.8 µM (inactive)	42.2 µM (inactive)	7.05 µM	47.3 µM (inactive)	22.3 µM (inactive)	24.9 µM (inactive)	58.6 µM (inactive)	15.1 µM (inactive)	76.9 µM (inactive)	29.2 µM (inactive)	24.3 µM (inactive)	57.7 µM (inactive)
CO[C@H]1C=CO[C@@]2(C)Oc3c(C)c(O)c4c(O)c(c(CN5CCN(C)CC5)c(O)c4c3C2=O)NC(=O)/C(C)=C\C=C[C@H](C)[C@H](O)C(C)[C@@H](O)C(C)[C@H](OC(C)=O)[C@@H]1C (stereo partly drawn)	> 100 µM (inactive)	> 75.3 µM (inactive)	45.9 µM (inactive)	> 77.1 µM (inactive)	4.39 µM (inactive)	34.8 µM (inactive)	30.8 µM	21.6 µM (inactive)	> 100 µM (inactive)	27.5 µM (inactive)	40.6 µM (inactive)	39.6 µM (inactive)	> 100 µM (inactive)	17 µM (inactive)	13.1 µM (inactive)	26.7 µM (inactive)
Cc1cc(O)cc(O)c1/N=N/c1ccc([N+](=O)[O-])cc1	18.4 µM (inactive)	17.1 µM (inactive)	15 µM (inactive)	14.2 µM (inactive)	5.69 µM (inactive)	22.9 µM (inactive)	6.87 µM	29.3 µM (inactive)	27.5 µM (inactive)	13.8 µM (inactive)	20.2 µM (inactive)	19.4 µM (inactive)	27.7 µM (inactive)	16 µM (inactive)	5.96 µM (inactive)	9.14 µM (inactive)
CCOCC(=O)N[C@H]1CCc2cc(OC(=O)COCC)c(OC)c(OC)c2-c2ccc(SC)c(=O)cc21	0.0472 µM (active)	0.0655 µM (active)	0.0752 µM (active)	0.15 µM (active)	0.0231 µM (active)	0.0222 µM (active)	0.0551 µM	0.0177 µM (active)	0.0122 µM (active)	0.00195 µM (active)	0.0138 µM (active)	0.0327 µM (active)	0.604 µM (active)	0.0224 µM (active)	0.0171 µM (active)	> 10 µM (inactive)
NCCC1([N+](=O)[O-])C=CN=CC1 (stereo not drawn)	> 100 µM (inactive)	> 100 µM (inactive)	> 100 µM (inactive)	> 100 µM (inactive)	> 100 µM (inactive)	> 100 µM (inactive)	> 100 µM	> 100 µM (inactive)	> 100 µM (inactive)	> 100 µM (inactive)	> 100 µM (inactive)	> 100 µM (inactive)	> 100 µM (inactive)	> 100 µM (inactive)	> 100 µM (inactive)	> 100 µM (inactive)
O=C1c2ccccc2-c2nnc(-c3ccc(Cl)cc3)cc21	> 10 µM (inactive)	> 10 µM (inactive)	> 10 µM (inactive)	> 10 µM (inactive)	> 10 µM (inactive)	> 10 µM (inactive)	> 10 µM	> 10 µM (inactive)	> 10 µM (inactive)	> 10 µM (inactive)	> 10 µM (inactive)	> 10 µM (inactive)	> 10 µM (inactive)	> 10 µM (inactive)	> 10 µM (inactive)	> 10 µM (inactive)
C#CCNC(CS)C(=O)O (stereo not drawn)	> 100 µM (inactive)	> 100 µM (inactive)	> 100 µM (inactive)	> 100 µM (inactive)	> 100 µM (inactive)	> 100 µM (inactive)	> 100 µM	> 100 µM (inactive)	> 100 µM (inactive)	> 100 µM (inactive)	> 100 µM (inactive)	> 100 µM (inactive)	> 100 µM (inactive)	> 100 µM (inactive)	> 100 µM (inactive)	> 100 µM (inactive)
CCC1CN(C(=O)c2ccccc2)C(Cc2c[nH]c3ccccc23)C(=O)C1CC(=O)OC (stereo not drawn)	1.09 µM (active)	> 100 µM (inactive)	> 100 µM (inactive)	54.7 µM (inactive)	51.4 µM (inactive)	> 100 µM (inactive)	> 100 µM	28 µM (inactive)	51.8 µM (inactive)	> 100 µM (inactive)	55.6 µM (inactive)	43.4 µM (inactive)	> 100 µM (inactive)	46 µM (inactive)	> 100 µM (inactive)	> 100 µM (inactive)
Cn1c2c3ccc(Cl)cc3nc-2c(Cl)c2ccccc21	19.9 µM (inactive)	13.5 µM (inactive)	24.3 µM (inactive)	17.3 µM (inactive)	3.86 µM (inactive)	15.1 µM (inactive)	14.7 µM	15.3 µM (inactive)	40.6 µM (inactive)	18.1 µM (inactive)	18.2 µM (inactive)	12.7 µM (inactive)	17.3 µM (inactive)	13.7 µM (inactive)	11.9 µM (inactive)	11.9 µM (inactive)
COc1cc2c3c(cc(Cl)nc3c1OC)C(=O)C(=O)N2	16.6 µM (inactive)	14.7 µM (inactive)	16.2 µM (inactive)	15.1 µM (inactive)	1.69 µM (inactive)	17 µM (inactive)	19.2 µM	22.4 µM (inactive)	30.4 µM (inactive)	1.79 µM (inactive)	2.06 µM (inactive)	20.7 µM (inactive)	18 µM (inactive)	14.5 µM (inactive)	5.85 µM (inactive)	3.68 µM (inactive)
O=C1CS(=O)(=O)C(c2cccc(Oc3ccccc3)c2)N1c1ccccc1 (stereo not drawn)	17.9 µM (inactive)	23.7 µM (inactive)	20.1 µM (inactive)	20.5 µM (inactive)	34.8 µM (inactive)	48 µM (inactive)	22 µM	26.5 µM (inactive)	28.4 µM (inactive)	27.4 µM (inactive)	20.5 µM (inactive)	18.7 µM (inactive)	31.6 µM (inactive)	19.1 µM (inactive)	31.5 µM (inactive)	15.3 µM (inactive)
CC(NNC(=O)c1cc[n+]([BH2-]C#N)cc1)c1cccc(F)c1 (stereo not drawn)	> 100 µM (inactive)	> 100 µM (inactive)	> 100 µM (inactive)	> 100 µM (inactive)	> 100 µM (inactive)	> 100 µM (inactive)	> 100 µM		> 100 µM (inactive)	> 100 µM (inactive)	> 100 µM (inactive)	> 100 µM (inactive)	> 100 µM (inactive)	> 100 µM (inactive)	> 100 µM (inactive)	> 100 µM (inactive)
COc1ccccc1CNCc1nc2ccccc2[nH]1	> 100 µM (inactive)	> 100 µM (inactive)	> 100 µM (inactive)	> 100 µM (inactive)	> 100 µM (inactive)	> 100 µM (inactive)	> 100 µM	78.7 µM (inactive)	> 100 µM (inactive)	> 100 µM (inactive)		> 100 µM (inactive)	> 100 µM (inactive)	> 100 µM (inactive)	> 100 µM (inactive)	> 100 µM (inactive)
CC1CCCCNC1=S (stereo not drawn)	> 10 µM (inactive)	> 10 µM (inactive)	> 10 µM (inactive)		> 10 µM (inactive)	> 10 µM (inactive)	> 10 µM	> 10 µM (inactive)	> 10 µM (inactive)	> 10 µM (inactive)	> 10 µM (inactive)	> 10 µM (inactive)	> 10 µM (inactive)	> 10 µM (inactive)	> 10 µM (inactive)	> 10 µM (inactive)
Cc1nc(C)c(C(=O)NNC(=O)c2ccccc2)cc1C(=O)NNC(=O)c1ccccc1	> 100 µM (inactive)	> 100 µM (inactive)	> 100 µM (inactive)	> 100 µM (inactive)	> 100 µM (inactive)	> 100 µM (inactive)	> 100 µM	> 100 µM (inactive)	> 100 µM (inactive)	> 100 µM (inactive)		> 100 µM (inactive)	> 100 µM (inactive)	> 100 µM (inactive)	> 100 µM (inactive)	> 100 µM (inactive)
